Reference: patent US5516790A, “Synthesis and application of alkyl-substituted dibenzofurans as antitumorigenic agents” (Texas A&M University System Technology Licensing Office, priority 1994, dated 1996)

Tests used:
[1] = system: estrogen receptor (ER); assay: Uterine estrogen receptor levels, hydroxyapatite assay (Example 8); format: in vivo, female Sprague-Dawley rats
Description: A second group of animals was similarly treated with corn oil, TCDD, MCDF, or TCDD plus MCDF, all administered in corn oil at 10 ml/kg and terminated 72 hours later.
(§1) The animals were terminated by cervical dislocation. Livers were perfused with ice-cold TEDG buffer (10 mM Tris-HCl, 1.5 mM EDTA-4Na, 1 mM dithiothreitol, 10% glycerol (v/v), pH 7.4). Following perfusion in situ, livers were removed, weighed, and homogenized in ice-cold TEDG buffer. Uteri were also removed, weighed, and homogenized in ice-cold buffer. The homogenates were then centrifuged at 800×g ([…]) for 15 minutes and the nuclear pellets were stored at -80° C. The supernatants were further centrifuged at 180,000× g for 1.5 hours. The cytosolic supernatant was also stored at -80° C. Estrogen and progesterone receptor levels were determined within 7 days.
(§2) Estrogen (ER) and progesterone (PR) receptor levels were determined by the hydroxyapatite assay as described by Clark et al. (J. Steroid Biochem. 16:323-328, 1982) and incorporated herein by reference. […] Following the incubations, samples were counted and specific binding was calculated by subtraction of nonspecific from total binding. Assuming one steroid molecule binds to one estrogen/progesterone receptor, the number of moles of receptor can be calculated given the specific activity of the radioligand. The data presented in Tables 1 through 6 are means ± SD using at least four animals per treatment group. Significant differences were determined by analysis of variance.

[2] = system: progesterone receptor (PR); assay: Uterine progesterone receptor levels, hydroxyapatite assay (Example 8); format: in vivo, female Sprague-Dawley rats
Description: as §1, §2

[3] = system: female rat uterus; assay: Antiestrogenic effect on uterine wet weight, immature female Sprague-Dawley rats (Example 8); format: in vivo
[4] = 150 μmol/kg + E-2 (2 × 10 μg/rat), run B
[5] = compound alone, 150 μmol/kg (17β-estradiol: 2 × 10 μg/rat), run B
[6] = Table 3: 50 μmol/kg + E-2 (2 × 10 μg/rat)
[7] = Table 3: compound alone, 50 μmol/kg (17β-estradiol: 2 × 10 μg/rat)

Structure (SMILES) | Estrogen Receptor Levels, Cytosolic [1, 4] | Estrogen Receptor Levels, Nuclear [1, 4] | Estrogen Receptor Levels, Cytosolic [1, 5] | Estrogen Receptor Levels, Nuclear [1, 5] | Progesterone Receptor Levels, Cytosolic [2, 4] | Progesterone Receptor Levels, Nuclear [2, 4] | Progesterone Receptor Levels, Cytosolic [2, 5] | Progesterone Receptor Levels, Nuclear [2, 5] | Uterine Wet Weight [3, 4] | Uterine Wet Weight [3, 5] | further results
CC(C)c1cc(Cl)cc2c1oc1cc(Cl)cc(Cl)c12 [6-i-Propyl-1,3,8-triCDF] | 135.5 ± 78.1 fmol/mg protein | 52.6 ± 2.6 fmol/mg protein | 95.2 ± 6.2 fmol/mg protein | 57.7 ± 2.9 fmol/mg protein | 2131 ± 76 fmol/mg protein | 272 ± 19 fmol/mg protein | 1225 ± 59 fmol/mg protein | 242 ± 17 fmol/mg protein | 0.210 ± 0.012 % body wt | 0.154 ± 0.017 % body wt | ED40-60 for Inhibition, ERc ([1]; cotreatment with 17β-estradiol): 10 µmol/kg; ED40-60 for Inhibition, ERn ([1]; cotreatment with 17β-estradiol): 25 µmol/kg; ED40-60 for Inhibition, PRc ([2]; cotreatment with 17β-estradiol): 25 µmol/kg; ED40-60 for Inhibition, PRn ([2]; cotreatment with 17β-estradiol): 25 µmol/kg; antiuterotrophic activity ([3]; rat, in vivo): surprisingly active
CCCc1cc(Cl)cc2c1oc1cc(Cl)cc(Cl)c12 [6-n-Propyl-1,3,8-triCDF] | 169.4 ± 6.0 fmol/mg protein | 33.7 ± 1.7 fmol/mg protein | 86.4 ± 8.1 fmol/mg protein | 35.4 ± 1.8 fmol/mg protein | 1838 ± 62 fmol/mg protein | 408 ± 29 fmol/mg protein | 740 ± 71 fmol/mg protein | 294 ± 21 fmol/mg protein | 0.240 ± 0.019 % body wt | 0.118 ± 0.008 % body wt | 
CC(C)(C)c1cc(Cl)cc2c1oc1cc(Cl)cc(Cl)c12 [6-t-Butyl-1,3,8-triCDF] | 108.6 ± 11.4 fmol/mg protein | 41.7 ± 2.1 fmol/mg protein | 85.5 ± 4.3 fmol/mg protein | 41.4 ± 2.1 fmol/mg protein | 1844 ± 77 fmol/mg protein | 270 ± 19 fmol/mg protein | 1109 ± 83 fmol/mg protein | 211 ± 15 fmol/mg protein | 0.247 ± 0.004 % body wt | 0.122 ± 0.013 % body wt | 
Cc1cc2oc3cc(Cl)c(Cl)cc3c2cc1Cl [7-Methyl-2,3,-triCDF, 7-methyl-2,3,8-trichlorodibenzofuran] |  |  |  |  |  |  |  |  |  |  | Estrogen Receptor Levels, Cytosolic [1, 6]: 94.2 ± 4.71 fmol/mg protein; Estrogen Receptor Levels, Nuclear [1, 6]: 48.1 ± 2.4 fmol/mg protein; Estrogen Receptor Levels, Cytosolic [1, 7]: 72.9 ± 3.7 fmol/mg protein; Estrogen Receptor Levels, Nuclear [1, 7]: 35.2 ± 1.8 fmol/mg protein; Progesterone Receptor Levels, Cytosolic [2, 6]: 924 ± 74 fmol/mg protein; Progesterone Receptor Levels, Nuclear [2, 6]: 554 ± 39 fmol/mg protein; Progesterone Receptor Levels, Cytosolic [2, 7]: 501 ± 35 fmol/mg protein; Progesterone Receptor Levels, Nuclear [2, 7]: 364 ± 26 fmol/mg protein; Uterine Wet Weight [3, 6]: 0.255 ± 0.017 % body wt; Uterine Wet Weight [3, 7]: 0.102 ± 0.011 % body wt
